Experiments:
[1] = biological target: full-length PI3Kα (full-length p110α/p85α) (Homo sapiens (Human), UniProt P42336); assay: PI3KA_FL fluorescence polarization kinase assay (Ki); format: biochemical; details: 41 μM ATP
[2] = biological target: truncated PI3Kα (p110α/iSH2 p85α) (Homo sapiens (Human), UniProt P42336); assay: PI3KA_Act fluorescence polarization kinase assay (Ki); format: biochemical; details: 1 mM ATP
Procedure, shortened: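 Ki values result from fitting fluorescence polarization signals to the Morrison equation for tight-binding competitive inhibitors. The detector was GST-Grp1 PH domain with TAMRA-PIP3, read after a 30 min room-temperature reaction of 0.5 nM truncated PI3Kα and 30 μM PIP2 at pH 7.4 in HEPES/NaCl/MgCl2/DTT/CHAPS buffer. Compounds were tested as 12-point 3-fold dilutions from 3 μM.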

Sequence of truncated PI3Kα (p110α/iSH2 p85α) (P42336 whole entry, the tested form may be a part): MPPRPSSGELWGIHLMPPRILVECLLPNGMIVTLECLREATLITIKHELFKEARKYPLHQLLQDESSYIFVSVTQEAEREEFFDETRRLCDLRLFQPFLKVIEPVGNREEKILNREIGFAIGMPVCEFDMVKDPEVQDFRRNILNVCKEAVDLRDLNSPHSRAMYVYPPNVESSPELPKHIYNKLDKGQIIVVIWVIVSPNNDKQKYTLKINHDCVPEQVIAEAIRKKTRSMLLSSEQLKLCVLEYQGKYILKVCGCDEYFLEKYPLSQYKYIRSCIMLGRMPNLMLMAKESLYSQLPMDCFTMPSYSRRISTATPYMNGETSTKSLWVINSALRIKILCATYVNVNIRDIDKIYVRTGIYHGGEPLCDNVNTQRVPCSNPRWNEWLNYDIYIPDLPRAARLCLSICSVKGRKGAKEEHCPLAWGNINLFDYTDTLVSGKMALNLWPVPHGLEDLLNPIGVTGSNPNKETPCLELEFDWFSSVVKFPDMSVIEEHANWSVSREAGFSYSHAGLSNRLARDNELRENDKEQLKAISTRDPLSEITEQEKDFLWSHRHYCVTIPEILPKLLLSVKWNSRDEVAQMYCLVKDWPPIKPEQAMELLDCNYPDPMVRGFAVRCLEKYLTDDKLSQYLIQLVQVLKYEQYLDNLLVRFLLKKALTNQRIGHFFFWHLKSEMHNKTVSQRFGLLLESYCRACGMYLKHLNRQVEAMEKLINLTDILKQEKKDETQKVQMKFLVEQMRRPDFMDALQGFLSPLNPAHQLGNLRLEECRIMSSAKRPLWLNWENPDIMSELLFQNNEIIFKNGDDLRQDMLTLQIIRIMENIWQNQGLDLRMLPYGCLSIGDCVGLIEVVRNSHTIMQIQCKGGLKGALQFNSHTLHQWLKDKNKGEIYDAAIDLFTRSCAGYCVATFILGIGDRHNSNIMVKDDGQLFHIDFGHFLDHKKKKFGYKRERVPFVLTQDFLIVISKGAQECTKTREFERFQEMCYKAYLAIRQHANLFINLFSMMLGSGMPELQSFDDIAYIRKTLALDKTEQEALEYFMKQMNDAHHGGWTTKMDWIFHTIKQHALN
Sequence of full-length PI3Kα (full-length p110α/p85α) (P42336 whole entry, the tested form may be a part): as above
Sequence of full-length PI3Kα (full-length p110α/p85α) (P27986 whole entry partner, the tested form may be a part): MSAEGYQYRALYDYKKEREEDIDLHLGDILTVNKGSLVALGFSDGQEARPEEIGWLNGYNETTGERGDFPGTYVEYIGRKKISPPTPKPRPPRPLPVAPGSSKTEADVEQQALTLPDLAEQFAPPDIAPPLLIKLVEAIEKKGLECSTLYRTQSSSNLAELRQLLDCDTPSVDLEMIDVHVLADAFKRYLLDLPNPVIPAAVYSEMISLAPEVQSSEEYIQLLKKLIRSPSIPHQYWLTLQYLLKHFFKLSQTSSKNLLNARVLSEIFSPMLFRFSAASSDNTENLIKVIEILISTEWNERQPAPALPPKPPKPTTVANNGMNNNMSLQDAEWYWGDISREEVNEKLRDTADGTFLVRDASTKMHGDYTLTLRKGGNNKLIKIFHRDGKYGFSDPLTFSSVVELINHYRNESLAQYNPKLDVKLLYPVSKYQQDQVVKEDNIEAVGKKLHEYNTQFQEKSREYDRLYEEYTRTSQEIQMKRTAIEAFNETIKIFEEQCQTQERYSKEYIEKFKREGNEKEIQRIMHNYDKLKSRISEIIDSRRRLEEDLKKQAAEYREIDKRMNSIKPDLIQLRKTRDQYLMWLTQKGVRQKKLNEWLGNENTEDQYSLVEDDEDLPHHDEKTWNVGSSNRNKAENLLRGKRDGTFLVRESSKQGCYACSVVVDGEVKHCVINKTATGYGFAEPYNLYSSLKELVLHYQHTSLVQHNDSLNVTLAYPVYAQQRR

Structure (SMILES) | PI3KA_FL Ki (nM) [1] | PI3KA_Act Ki [2] [nM] | PI3KA_FL Ki [1] [nM]
CCS(=O)(=O)N1CC(N2CCc3c(-c4cnc(N)nc4)nc(N4CCOCC4)nc32)C1 [Example 108] | ≦0.229 nM | 0.122 | –
Nc1ncc(-c2nc(N3CCOCC3)nc3c2CCN3C2CN(S(=O)(=O)C3CC3)C2)cn1 [Example 109] | ≦0.229 nM | 0.118 | –
CC(C)S(=O)(=O)N1CC[C@@H](N2CCc3c(-c4cnc(N)nc4)nc(N4CCOCC4)nc32)C1 [Example 111] | ≦0.229 nM | 0.151 | –
C[C@H]1COCCN1c1nc(-c2cnc(N)nc2)c2c(n1)N(C1CN(S(C)(=O)=O)C1)CC2 [Example 113] | ≦0.229 nM | 0.289 | –
CCS(=O)(=O)N1CC(N2CCc3c(-c4cnc(N)nc4)nc(N4CCOC[C@@H]4C)nc32)C1 [Example 115] | ≦0.229 nM | 0.105 | –
CNS(=O)(=O)N1C[C@@H](N2CCc3c(-c4cnc(N)nc4)nc(N4CCOC[C@@H]4C)nc32)[C@H](OC)C1 [Example 117] | – | 0.179 | 0.256
C[C@H]1COCCN1c1nc(-c2cnc(N)nc2)c2c(n1)N(C1CN(S(=O)(=O)C3CC3)C1)CC2 [Example 118] | ≦0.229 nM | 0.030 | –
CCS(=O)(=O)N1CC[C@H](N2CCc3c(-c4cnc(N)nc4)nc(N4CCOC[C@@H]4C)nc32)C1 [Example 119] | ≦0.229 nM | 0.059 | –
C[C@H]1COCCN1c1nc(-c2cnc(N)nc2)c2c(n1)N(C1CN(S(=O)(=O)N(C)C)C1)CC2 [Example 120] | ≦0.229 nM | 0.030 | –
C[C@H]1COCCN1c1nc(-c2cnc(N)nc2)c2c(n1)N([C@H]1CCN(S(=O)(=O)C3CC3)C1)CC2 [Example 121] | ≦0.229 nM | 0.056 | –
CNS(=O)(=O)N1CC(N2CCc3c(-c4cnc(N)nc4)nc(N4CCOC[C@@H]4C)nc32)C1 [Example 122] | ≦0.229 nM | 0.064 | –
COC(=O)N1CC[C@H](N2CCc3c(-c4cnc(N)nc4)nc(N4CCOC[C@@H]4C)nc32)C1 [Example 123] | ≦0.229 nM | 0.069 | –
CCOC(=O)N1CC[C@H](N2CCc3c(-c4cnc(N)nc4)nc(N4CCOC[C@@H]4C)nc32)C1 [Example 125] | ≦0.229 nM | 0.087 | –
C[C@H]1COCCN1c1nc(-c2cnc(N)nc2)c2c(n1)N(C1CN(S(N)(=O)=O)C1)CC2 [Example 126] | ≦0.229 nM | 0.219 | –
CNS(=O)(=O)N1C[C@@H](O)[C@H](N2CCc3c(-c4cnc(N)nc4)nc(N4CCOC[C@@H]4C)nc32)C1 [Example 128] | ≦0.229 nM | 0.126 | –
CC(C)S(=O)(=O)N1CC[C@H](N2CCc3c(-c4cnc(N)nc4)nc(N4CCOC[C@@H]4C)nc32)C1 [Example 131] | ≦0.229 nM | 0.044 | –
CC(C)(C)N1CCc2c(-c3cnc(N)nc3)nc(N3CCOCC3)nc21 [Example 132] | ≦0.229 nM | 0.150 | –
CC(=O)N1CC(OC(=O)N2CC[C@@H](N3CCc4c(-c5cnc(N)nc5)nc(N5CCOC[C@@H]5C)nc43)C2)C1 [Example 136] | ≦0.229 nM | 0.099 | –
